According to patent US10479777B2, “Herbicidal azines” (BASF SE, priority 2013, dated 2019):

Key:
Type in all cases: in vivo
Poa annua = assay: greenhouse test, pre-emergence treatment; conditions: scale from 0 to 100
Text: (§1) The culture containers used were plastic flowerpots containing loamy sand with approximately 3.0% of humus as the substrate. The seeds of the test plants were sown separately for each species.
(§2) For the pre-emergence treatment, the active ingredients, which had been suspended or emulsified in water, were applied directly after sowing by means of finely distributing nozzles. The containers were irrigated gently to promote germination and growth and subsequently covered with transparent plastic hoods until the plants had rooted. This cover caused uniform germination of the test plants, unless this had been impaired by the active ingredients. For the post-emergence treatment, the test plants were first grown to a height of 3 to 15 cm, depending on the plant habit, and only then treated with the active ingredients which had been suspended or emulsified in water. For this purpose, the test plants were either sown directly and grown in the same containers, or they were first grown separately as seedlings and transplanted into the test containers a few days prior to treatment.
(§3) Depending on the species, the plants were kept at 10-25° C. or 20-35° C., respectively. The test period extended over 2 to 4 weeks. During this time, the plants were tended, and their response to the individual treatments was evaluated.
(§4) Evaluation was carried out using a scale from 0 to 100. 100 means no emergence of the plants, or complete destruction of at least the aerial moieties, and 0 means no damage, or normal course of growth. A moderate herbicidal activity is given at values of at least 60, a good herbicidal activity is given at values of at least 70, and a very good herbicidal activity is given at values of at least 85.
(§5) The plants used in the greenhouse experiments were of the following species: […]

Stellaria media = assay: greenhouse test, pre-emergence treatment; conditions: scale from 0 to 100
Text: as §1, §2, §3, §4, §5

Polygonum convolvulus = assay: greenhouse test, pre-emergence treatment; conditions: 62.5 g/ha, scale from 0 to 100
Text: as §1, §2, §3, §4, §5

Setaria viridis [1] = assay: greenhouse test, pre-emergence treatment; conditions: 62.5 g/ha, scale from 0 to 100
Text: as §1, §2, §3, §4, §5

Echinocloa crus-galli = assay: greenhouse test, pre-emergence treatment; conditions: 62.5 g/ha, scale from 0 to 100
Text: as §1, §2, §3, §4, §5

Abutilon theophrasti = assay: greenhouse test, post-emergence treatment; conditions: scale from 0 to 100
Text: as §1, §2, §3, §4, §5

Amaranthus retroflexus = assay: greenhouse test, post-emergence treatment; conditions: scale from 0 to 100
Text: as §1, §2, §3, §4, §5

Setaria faberi = assay: greenhouse test, post-emergence treatment; conditions: 500 g/ha, scale from 0 to 100
Text: as §1, §2, §3, §4, §5

Setaria viridis [2] = assay: greenhouse test, post-emergence treatment; conditions: 2000 g/ha, scale from 0 to 100
Text: as §1, §2, §3, §4, §5

Nc1nc(Nc2c(F)c(F)nc(F)c2F)nc(C2CCCCC2)n1 [Example 59]
herbicidal activity (Poa annua; 250 g/ha): very good (a very good herbicidal activity is given at values of at least 85) | herbicidal activity (Stellaria media; 250 g/ha): very good (a very good herbicidal activity is given at values of at least 85)

CC(C)(Cl)c1nc(N)nc(Nc2c(F)c(F)nc(F)c2F)n1 [Example 56]
herbicidal activity (Poa annua; 125 g/ha): very good (a very good herbicidal activity is given at values of at least 85) | herbicidal activity (Stellaria media; 125 g/ha): very good (a very good herbicidal activity is given at values of at least 85)

CC(C)(F)c1nc(N)nc(Nc2c(F)c(F)nc(F)c2F)n1 [Example 1, 6-(1-Fluoro-1-methyl-ethyl)-N4-(2,3,5,6-tetrafluoro-4-pyridyl)-1,3,5-triazine-2,4-diamine]
herbicidal activity (Polygonum convolvulus): very good (a very good herbicidal activity is given at values of at least 85) | herbicidal activity (Setaria viridis [1]): very good (a very good herbicidal activity is given at values of at least 85) | herbicidal activity (Echinocloa crus-galli): very good (a very good herbicidal activity is given at values of at least 85)

CC(c1nc(N)nc(Nc2c(F)c(F)nc(F)c2F)n1)C1CC1 (stereo not shown) [Example 60]
herbicidal activity (Abutilon theophrasti; 500 g/ha): very good (a very good herbicidal activity is given at values of at least 85) | herbicidal activity (Amaranthus retroflexus; 500 g/ha): very good (a very good herbicidal activity is given at values of at least 85) | herbicidal activity (Setaria faberi): very good (a very good herbicidal activity is given at values of at least 85)

Cc1cccnc1Nc1nc(N)nc(C(F)(F)F)n1 [Example 34]
herbicidal activity (Setaria viridis [2]): very good (a very good herbicidal activity is given at values of at least 85) | herbicidal activity (Abutilon theophrasti; 2000 g/ha): very good (a very good herbicidal activity is given at values of at least 85) | herbicidal activity (Amaranthus retroflexus; 2000 g/ha): very good (a very good herbicidal activity is given at values of at least 85)
